# Laboratory results: US8940769B2, “Biaryl benzoimidazole derivatives and pharmaceutical composition comprising the same” (Daewoong Pharmaceutical Co., Ltd., priority 2006, dated 2015)
# Biological target: T1, human vanilloid receptor VR-1 (hVR1) (Homo sapiens, UniProt Q8NER1)
# T1 construct: expressed in transfected cells; host or cells: HEK293 Tet-on cells (hVR1-HEK293), expression induced with doxycycline
# Assay: Calcium influx test of vanilloid receptor (capsaicin-induced, Fluo-3/AM, hVR1-HEK293 cells)
# Assay type: cell-based
# Settings: for IC50: calcium influx induced by 1 μM capsaicin, read-out: Inhibitory effect IC50 (nM) on calcium influx; for inhibition at 0.2 µM: single concentration of compound 200 nM, 1 μM capsaicin, read-out: Inhibitory effect (%) on calcium influx
# Experimental: In order to measure an activity of the biaryl benzoimidazole derivative of the invention as an antagonist, a calcium influx test was performed.
# An hVR1-HEK293 cell line is a cell line, in which a Human Embryonic Kidney (HEK) 293 Tet-on cell is transformed with a human vanilloid-1 gene (pTRE2hyg-hVR1, 7.8 kb). The cell line can regulate a VR-1 expression, depending on the administration of a tetracycline analogue, doxycycline. At two days before the calcium influx test, the cell line was cultured in media containing doxycycline to induce the VR-1 expression, and then used. First, the hVR1-HEK293 cells were cultured in T75 flasks to have a density of about 80%, and then detached from the bottom of the flasks by using trypsin. The detached cells were centrifuged and collected. Then, the cells were suspended in media containing 1 μg/mL doxycycline, and diluted to have a concentration of 2×10^5 to 4×10^5 cells/mL. 100 μL of the suspended cells were added to each well of 96-well black plate, cultured at 37° C. and 5% CO2 cell incubator for two days, and then used in the calcium influx test.
# The compound was dissolved in dimethyl sulfoxide (DMSO), and then used for the calcium influx test.
# In order to measure the calcium influx […], the cells were cultured in a solution containing Fluo-3/AM, which is a calcium indicator, at 37° C. for 90 minutes, so as to be permeated by a fluorescent dye. […] 193 μL D-PBS were added to each well, and then the compound was added thereto in various concentrations. To measure an activity as an antagonist, the cells were treated with 1 μM capsaicin to stimulate the calcium influx. The inhibitory effect of the compound when calcium influx was induced by 1 μM capsaicin was measured depending on its concentration using a fluorescence spectrometer, and the obtained data were substituted into a hill equation to analyze the values.
# The inhibitory effect on calcium influx was measured with a single concentration of the compounds of the invention (200 nM), and the result thereof are shown in Table 2.
# T1 sequence (Q8NER1 whole entry): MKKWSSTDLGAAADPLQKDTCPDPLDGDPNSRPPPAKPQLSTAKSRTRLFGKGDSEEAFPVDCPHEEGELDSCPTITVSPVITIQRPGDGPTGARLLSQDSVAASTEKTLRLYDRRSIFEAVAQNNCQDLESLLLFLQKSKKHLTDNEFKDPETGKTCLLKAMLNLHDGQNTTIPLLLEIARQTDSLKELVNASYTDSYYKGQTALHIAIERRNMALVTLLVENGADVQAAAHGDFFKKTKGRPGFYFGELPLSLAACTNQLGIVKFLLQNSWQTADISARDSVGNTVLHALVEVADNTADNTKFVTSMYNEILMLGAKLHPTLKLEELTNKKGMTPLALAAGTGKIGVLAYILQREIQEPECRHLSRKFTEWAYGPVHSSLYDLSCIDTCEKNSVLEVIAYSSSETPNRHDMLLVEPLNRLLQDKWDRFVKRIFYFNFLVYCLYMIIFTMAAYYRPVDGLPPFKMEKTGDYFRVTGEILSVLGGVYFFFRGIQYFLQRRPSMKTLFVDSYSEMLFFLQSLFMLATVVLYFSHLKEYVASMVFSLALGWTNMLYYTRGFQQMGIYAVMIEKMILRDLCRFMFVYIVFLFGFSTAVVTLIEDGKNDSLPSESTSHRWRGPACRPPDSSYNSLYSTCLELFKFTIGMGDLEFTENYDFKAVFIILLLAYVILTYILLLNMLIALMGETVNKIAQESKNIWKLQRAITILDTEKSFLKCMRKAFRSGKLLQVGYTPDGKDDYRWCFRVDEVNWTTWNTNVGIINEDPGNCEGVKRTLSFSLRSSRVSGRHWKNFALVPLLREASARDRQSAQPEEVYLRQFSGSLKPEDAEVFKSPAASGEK
Compound,IC50 [nM],inhibition at 0.2 µM [%]
"CC(C)(C)c1ccc2nc(-c3ccc(-c4ncc(C=O)cc4Cl)cc3)[nH]c2c1 [Compound 59, 6-[4-(6-tert-butyl-1H-benzoimidazol-2-yl)-phenyl]-5-chloro-pyridine-3-carbaldehyde]",29.5,82.5
"CCNC(=O)c1cnc(-c2ccc(-c3nc4ccc(C(F)(F)F)cc4[nH]3)cc2)c(Cl)c1 [Compound 61, 5-chloro-N-ethyl-6-[4-(6-trifluoromethyl-1H-benzoimidazol-2-yl)-phenyl]-nicotinamide]",–,23.4
"CCNC(=O)c1cnc(-c2ccc(-c3nc4ccc(C(C)(C)C)cc4[nH]3)cc2)c(Cl)c1 [Compound 62, 6-[4-(6-tert-butyl-1H-benzoimidazol-2-yl)-phenyl]-5-chloro-N-ethyl-nicotinamide]",126,54.3
"CCNC(=O)c1cnc(-c2ccc(-c3nc4ccc(Br)cc4[nH]3)cc2)c(Cl)c1 [Compound 63, 6-[4-(6-bromo-1H-benzoimidazol-2-yl)-phenyl]-5-chloro-N-ethyl-nicotinamide]",397,38.3
"CCNC(=O)c1cnc(-c2ccc(-c3nc4ncc(Br)cc4[nH]3)cc2)c(Cl)c1 [Compound 64, 6-[4-(6-bromo-1H-imidazo[4,5-b]pyridin-2-yl)-phenyl]-5-chloro-N-ethyl-nicotinamide]",–,11.1
"CCNC(=O)c1cnc(-c2ccc(-c3nc4c(Br)cc(C(F)(F)F)cc4[nH]3)cc2)c(Cl)c1 [Compound 65, 6-[4-(4-bromo-6-trifluoromethyl-1H-benzoimidazol-2-yl)-phenyl]-5-chloro-N-ethyl-nicotinamide]",–,30.9
"C=Cc1cnc(-c2ccc(-c3nc4ccc(C(F)(F)F)cc4[nH]3)nc2)c(Cl)c1 [Compound 66, 3-chloro-6′-(6-trifluoromethyl-1H-benzoimidazol-2-yl)-5-vinyl-[2,3′]bipyridinyl]",–,0.2
"C=Cc1cnc(-c2ccc(-c3nc4ccc(C(C)(C)C)cc4[nH]3)nc2)c(Cl)c1 [Compound 67, 6′-(6-tert-butyl-1H-benzoimidazol-2-yl)-3-chloro-5-vinyl-[2,3′]bipyridinyl]",–,-8.8
"C=Cc1cnc(-c2ccc(-c3nc4ccc(Br)cc4[nH]3)nc2)c(Cl)c1 [Compound 68, 6′-(6-bromo-1H-benzoimidazol-2-yl)-3-chloro-5-vinyl-[2,3′]bipyridinyl]",–,-2.2
"C=Cc1cnc(-c2ccc(-c3nc4ccc(Cl)cc4[nH]3)nc2)c(Cl)c1 [Compound 69, 3-chloro-6′-(6-chloro-1H-benzoimidazol-2-yl)-5-vinyl-[2,3′]bipyridinyl]",–,11.3
"C=Cc1cnc(-c2ccc(-c3nc4c(Br)cc(C(F)(F)F)cc4[nH]3)nc2)c(Cl)c1 [Compound 70, 6′-(4-bromo-6-trifluoromethyl-1H-benzoimidazol-2-yl)-3-chloro-5-vinyl-[2,3′]bipyridinyl]",–,0
"COC(=O)c1cnc(-c2ccc(-c3nc4ccc(N5CCOCC5)cc4[nH]3)nc2)c(Cl)c1 [Compound 71, 3-chloro-6′-(6-morpholin-4-yl-1H-benzoimidazol-2-yl)-[2,3′]bipyridinyl-5-carboxylic acid methyl ester]",–,7.1
"COC(=O)c1cnc(-c2ccc(-c3nc4ccc(C(C)(C)C)cc4[nH]3)nc2)c(Cl)c1 [Compound 74, 6′-(6-tert-butyl-1H-benzoimidazol-2-yl)-3-chloro-[2,3′]bipyridinyl-5-carboxylic acid methyl ester]",26.2,81.3
"COC(=O)c1cnc(-c2ccc(-c3nc4ccc(Br)cc4[nH]3)nc2)c(Cl)c1 [Compound 75, 6′-(6-bromo-1H-benzoimidazol-2-yl)-3-chloro-[2,3′]bipyridinyl-5-carboxylic acid methyl ester]",–,45.3
"COC(=O)c1cnc(-c2ccc(-c3nc4ncc(Br)cc4[nH]3)nc2)c(Cl)c1 [Compound 76, 6′-(6-bromo-1H-imidazo[4,5-b]pyridin-2-yl)-3-chloro-[2,3′]bipyridinyl-5-carboxylic acid methyl ester]",–,7
"COC(=O)c1cnc(-c2ccc(-c3nc4c(Br)cc(C(F)(F)F)cc4[nH]3)nc2)c(Cl)c1 [Compound 77, 6′-(4-bromo-6-trifluoromethyl-1H-benzoimidazol-2-yl)-3-chloro-[2,3′]bipyridinyl-5-carboxylic acid methyl ester]",–,48.9

Compound,IC50 [nM],inhibition at 0.2 µM [%]
"COC(=O)c1cnc(-c2ccc(-c3nc4c(Br)cc(Br)cc4[nH]3)nc2)c(Cl)c1 [Compound 78, 3-chloro-6′-(4,6-dibromo-1H-benzoimidazol-2-yl)-[2,3′]bipyridinyl-5-carboxylic acid methyl ester]",–,4.1
"O=C(O)c1cnc(-c2ccc(-c3nc4ccc(N5CCOCC5)cc4[nH]3)nc2)c(Cl)c1 [Compound 79, 3-chloro-6′-(6-morpholin-4-yl-1H-benzoimidazol-2-yl)-[2,3′]bipyridinyl-5-carboxylic acid]",–,3.3
"CN1CCN(c2ccc3nc(-c4ccc(-c5ncc(C(=O)O)cc5Cl)cn4)[nH]c3c2)CC1 [Compound 80, 3-chloro-6′-[6-(4-methyl-piperazin-1-yl)-1H-benzoimidazol-2-yl]-[2,3′]bipyridinyl-5-carboxylic acid]",–,-5
"O=C(O)c1cnc(-c2ccc(-c3nc4ccc(C(F)(F)F)cc4[nH]3)nc2)c(Cl)c1 [Compound 81, 3-chloro-6′-(6-trifluoromethyl-1H-benzoimidazol-2-yl)-[2,3′]bipyridinyl-5-carboxylic acid]",–,9.6
"CC(C)(C)c1ccc2nc(-c3ccc(-c4ncc(C(=O)O)cc4Cl)cn3)[nH]c2c1 [Compound 82, 6′-(6-tert-butyl-1H-benzoimidazol-2-yl)-3-chloro-[2,3′]bipyridinyl-5-carboxylic acid]",–,6.7
"O=C(O)c1cnc(-c2ccc(-c3nc4ccc(Br)cc4[nH]3)nc2)c(Cl)c1 [Compound 83, 6′-(6-bromo-1H-benzoimidazol-2-yl)-3-chloro-[2,3′]bipyridinyl-5-carboxylic acid]",–,22.8
"O=C(O)c1cnc(-c2ccc(-c3nc4ncc(Br)cc4[nH]3)nc2)c(Cl)c1 [Compound 84, 6′-(6-bromo-1H-imidazo[4,5-b]pyridin-2-yl)-3-chloro-[2,3′]bipyridinyl-5-carboxylic acid]",–,6.3
"O=C(O)c1cnc(-c2ccc(-c3nc4c(Br)cc(C(F)(F)F)cc4[nH]3)nc2)c(Cl)c1 [Compound 85, 6′-(4-bromo-6-trifluoromethyl-1H-benzoimidazol-2-yl)-3-chloro-[2,3′]bipyridinyl-5-carboxylic acid]",–,4.2
"OCc1cnc(-c2ccc(-c3nc4ccc(N5CCOCC5)cc4[nH]3)nc2)c(Cl)c1 [Compound 87, [3-chloro-6′-(6-morpholin-4-yl-1H-benzoimidazol-2-yl)-[2,3′]bipyridinyl-5-yl]-methanol]",–,3.7
"CN1CCN(c2ccc3nc(-c4ccc(-c5ncc(CO)cc5Cl)cn4)[nH]c3c2)CC1 [Compound 88, {3-chloro-6′-[6-(4-methyl-piperazin-1-yl)-1H-benzoimidazol-2-yl]-[2,3′]bipyridinyl-5-yl}-methanol]",–,15.3
"OCc1cnc(-c2ccc(-c3nc4ccc(C(F)(F)F)cc4[nH]3)nc2)c(Cl)c1 [Compound 89, [3-chloro-6′-(6-trifluoromethyl-1H-benzoimidazol-2-yl)-[2,3′]bipyridinyl-5-yl]-methanol]",338,30
"CC(C)(C)c1ccc2nc(-c3ccc(-c4ncc(CO)cc4Cl)cn3)[nH]c2c1 [Compound 90, [6′-(6-tert-butyl-1H-benzoimidazol-2-yl)-3-chloro-[2,3′]bipyridinyl-5-yl]-methanol]",158,42.7
"OCc1cnc(-c2ccc(-c3nc4ccc(Br)cc4[nH]3)nc2)c(Cl)c1 [Compound 91, [6′-(6-bromo-1H-benzoimidazol-2-yl)-3-chloro-[2,3′]bipyridinyl-5-yl]-methanol]",517,27.6
"OCc1cnc(-c2ccc(-c3nc4ncc(Br)cc4[nH]3)nc2)c(Cl)c1 [Compound 92, [6′-(6-bromo-1H-imidazo[4,5-b]pyridin-2-yl)-3-chloro-[2,3′]bipyridinyl-5-yl]-methanol]",–,7.3
"OCc1cnc(-c2ccc(-c3nc4c(Br)cc(C(F)(F)F)cc4[nH]3)nc2)c(Cl)c1 [Compound 93, [6′-(4-bromo-6-trifluoromethyl-1H-benzoimidazol-2-yl)-3-chloro-[2,3′]bipyridinyl-5-yl]-methanol]",129,41
